Assay type in all cases: functional, cell-based
The subject of assay [1] is HT-29. As to the kind of experiment: Antiproliferative activity against human HT-29 cells assessed as inhibition of cell growth incubated for 48 hrs by MTT assay. As to conditions: HT-29, 48 h. In general terms: Formazan colour is commonly taken as a measure of viable cells.
The next assay deals with HeLa. As to the kind of experiment: Antiproliferative activity against human HeLa cells assessed as inhibition of cell growth incubated for 48 hrs by MTT assay.
In a further assay the test system is K562. Put plainly: Antiproliferative activity against human K562 cells assessed as inhibition of cell growth incubated for 48 hrs by MTT assay. The note with it: K562, 48 h.
In another assay the test system is MCF7. Put plainly: Antiproliferative activity against human MCF7 cells assessed as inhibition of cell growth incubated for 48 hrs by MTT assay. The note with it: MCF7, 48 h.
For another assay, the system named is HepG2. Put plainly: Antiproliferative activity against human HepG2 cells assessed as inhibition of cell growth incubated for 48 hrs by MTT assay. As to conditions: HepG2, 48 h.
The test system of assay [2] is HT-29. Put plainly: Antiproliferative activity against human HT-29 cells assessed as inhibition of cell growth at 1 to 10 uM incubated for 48 hrs by MTT assay. As to conditions: dose 1-10 µM.

Active and inactive are the calls of the source. The rule behind the calls is not given here. Where only a bound is given, the exact number is not on record here.

Usually IC50 stands for the concentration that inhibits the measured activity by half. On to `COc1ccc(OC)c(NC(=O)N2CCNc3cc(OC)ccc32)c1`, for which the IC50 in the assay on HT-29 [1] was 14.9 µM; in the assay on HeLa it was 6.52 µM; with K562, 4.57 µM; in the assay on MCF7, 40.3 µM; in the assay on HepG2, 20.5 µM. Moreover, the result with HT-29 [2] was Active.
Take `COc1ccc2c(c1)NCCN2C(=O)Nc1ccccc1OC`: the IC50 in the assay on HT-29 [1] is 19.1 µM; in the assay with HeLa, 11.7 µM; with K562, 49.1 µM; with MCF7 it was over 50 µM; in the assay with HepG2, 43.5 µM. In addition, the outcome in the assay on HT-29 [2] was Active.
As for `O=C(Nc1cccc2ccccc12)N1CCNc2ccccc21`, the result in the assay on HT-29 [2] was Active.
As for `COc1cccc(NC(=O)N2CCNc3cc(OC)ccc32)c1`, the result in the assay on HT-29 [2] was Active.
The same measure, in the same setting: then `O=C(Nc1ccc(OC(F)(F)F)cc1)N1CCNc2ccccc21`, with “Active”; and `COc1ccc2c(c1)NCCN2C(=O)Nc1ccc(Cl)c(C(F)(F)F)c1`, with “Active”.
With `COc1ccc2c(c1)NCCN2C(=O)NC1CCCCC1`, the outcome in the assay with HT-29 [2] was Active.
For the molecule `COC(=O)c1ccc2c(c1)NCCN2C(=O)Nc1ccc(C)cc1`, the outcome in the assay with HT-29 [2] was inactive.
Same read-out and setting: then `Cc1ccc(NC(=O)N2CCNc3ccccc32)cc1`, with “Active”; and `COc1ccc(NC(=O)N2CCNc3ccccc32)cc1`, with “Active”; and `COc1ccc2c(c1)NCCN2C(=O)Nc1ccc(OC(F)(F)F)cc1`, with “Active”.
The same measure, in the same setting: the result for `CC(C)NC(=O)N1CCNc2ccccc21` reads “Active”.
On to `COC(=O)c1ccc([C@H]2c3[nH]c4ccccc4c3C[C@H](C(=O)OC)N2C(=O)CCl)cc1`, for which the IC50 in the assay with HT-29 [1] is 3.25 µM.
Consider `Cc1ccc(NC(=O)N2CCNc3ncccc32)cc1`, for which the result in the assay with HT-29 [2] was inactive.
The same measure, in the same setting: the result for `COc1ccc2c(c1)NCCN2C(=O)NCCCCl` reads “Active”; that for `COc1ccc2c(c1)NCCN2C(=O)Nc1c(C)cccc1C`, “Active”.
In the case of `CCOc1ccccc1-n1c(C(C)N2CCN(C(=O)COc3ccc(Cl)cc3)CC2)nc2ccccc2c1=O` (stereo not drawn) [ERASTIN], the IC50 in the assay on HT-29 [1] turned out to be 20.9 µM.
On to `CNC(=O)c1cc(Oc2ccc(NC(=O)Nc3ccc(Cl)c(C(F)(F)F)c3)cc2)ccn1` [SORAFENIB], for which the IC50 with HT-29 [1] worked out at 3.56 µM; in the assay on HeLa, 10.3 µM; with MCF7 it was 9.81 µM; in the assay on HepG2, 11.2 µM.
With `COc1ccc(NC(=O)N2CCNc3cc(OC)ccc32)cc1`, in the assay with HT-29 [2], the result was Active.
On to `COC(=O)c1ccc2c(c1)NCCN2C(=O)Nc1ccc(OC)cc1`, for which the outcome with HT-29 [2] was inactive.
On the same count and under the same terms, the result for `COc1ccc2c(c1)NCCN2C(=O)Nc1ccc(C)cc1` reads “Active”; that for `CCNC(=O)N1CCNc2cc(OC)ccc21`, “Active”; that for `COc1ccccc1NC(=O)N1CCNc2ncccc21`, “inactive”.
In the case of `COc1ccc2c(c1)NCCN2C(=O)NC(C)(C)C`, the IC50 in the assay on HT-29 [1] is 28.4 µM; with HeLa, 25.4 µM; in the assay on K562, 28.3 µM; with MCF7, 36.4 µM; with HepG2, 15.7 µM. Besides, the result in the assay on HT-29 [2] was Active.
With `COc1ccc2c(c1)NCCN2C(=O)Nc1ccc(Cl)cc1`, in the assay on HT-29 [2], the result was Active.
For the molecule `COc1ccc2c(c1)NCCN2C(=O)Nc1ccccc1C(F)(F)F`, the IC50 amounted to 28.6 µM in the assay with HT-29 [1]; 16.6 µM in the assay with HeLa; 34.4 µM in the assay with K562; 48 µM in the assay with MCF7; 40.4 µM in the assay with HepG2. Besides, in the assay with HT-29 [2], the outcome was Active.
As to `COc1ccc2c(c1)NCCN2C(=O)Nc1cccc2ccccc12`, in the assay with HT-29 [2], the outcome was inactive.
For `COc1ccc2c(c1)NCCN2C(=O)Nc1ccccc1C`, the IC50 with HT-29 [1] was 26.6 µM; with HeLa, 22.7 µM; in the assay with K562 it was 19.4 µM; in the assay on MCF7 it was over 50 µM; in the assay with HepG2, 17.6 µM. Besides, the outcome with HT-29 [2] was Active.
Take `O=C(NCCCl)N1CCNc2ncccc21`: the result with HT-29 [2] was inactive.
The same measure, in the same setting: the result for `COc1ccc2c(c1)NCCN2C(=O)Nc1ccc(N)cc1` reads “Active”.

The values above are taken from ChEMBL document CHEMBL5505995, “Discovery of novel urea derivatives as ferroptosis and autophagy inducer for human colon cancer treatment” (Eur J Med Chem, 2024).
